This note sets out measurements from patent US20060135587A1, “Method and compounds for promoting healing and reducing inflammation” (priority 2002, published 2006).

SMILES strings stand for the structures.

The test system of data set [1] is acute Con A-induced inflammation. The data set can be described thus: Acute Con A-induced inflammation (paw oedema) in mice. Type of data set: in vivo. The following applies: Table 3, male CBA mice. How it is done:
Saline solution was similarly administered to the control animals. There were 10 mice in each group. After one hour, con A at a dose of 100 mkg/20 g of body weight was administered by sub-plantar injection into the plantar aponeurosis of the left paws of mice of both the experimental and control groups. The same amount of saline splution was injected into the contralateral paws. After one hour, the mice were killed and the experimental and control paws were weighed to assess the reaction index of the inflammation in the ankle-joint (Liubimov et al, 1999).
The anti-inflammatory effect of Compound 2 and Compound 7 was compared in male mice weighing 18-22 g, using the model described in Example 9. The ED50, i.e. the dose reducing paw ooedema by 50% one hour after injection of Concanavalin A, was calculated.

Data set [2] concerns regeneration of liver after partial hepatectomy. The data set can be described thus: Liver regeneration after partial hepatectomy in rats. It is filed as in vivo. How it is done: Partial hepatectomy was performed using the conventional method (Higgins and Anderson, 1931) by removing the left lateral and central lobes of the liver from 80 male white rats, weighing 180-200 g.
Compound 2, Compound 4, Compound 5 or Compound 6 was administered to the experimental groups intraperitoneally in equimolar doses of 0.1 mM/kg and 0.2 mM/kg. These optimal doses were determined in preliminary experiments. The control group received intraperitoneal injections of saline solution. The compounds were administered on the day after the operation and then one injection was given daily over the course of 7 days, since maximum growth of the liver mass in rats is observed in the first 7 days after partial hepatectomy (Solopaev, 1980).
The effectiveness of the compounds was compared to that of a combination of non-steroid anabolic regeneration stimulators which are used in the treatment of liver pathology, namely Riboxin and potassium orotate at a dose of 0.2 mM/kg each (Rychnev and Frolov, 1984).
For quantitative evaluation of the regeneration process in the liver the coefficient of regeneration completion as determined by the formula below was used: [formula] where
Stimulation of the regeneration of tissue after hepatectomy in response to different medicinal preparations is associated with an increase in the synthesis of nucleic acids, as indicated by the increase in the content of RNA and DNA in the regenerated tissue. Quantitative analysis of DNA and RNA was performed by centrifugation. […] The enzymic component of anti-oxidant protection was also assessed on the basis of the activity of catalase and superoxidedismutase (SOD).
5 ml of […] of HCIO4 solution were added to the sample (100 mg). In order to ensure complete sedimentation of the acid-insoluble fraction, the beakers were put in ice for 15 minutes. Then they were centrifuged for 10 minutes at 5000 revolutions per minute. The sediment was washed twice with 0.2 M HCIO4. After the final centrifugation, the walls of the beaker were carefully dried with gauze and filter paper. The sediment was ground down with a glass pestle, suspended in 1 ml of water and then 1 ml of 0.6 M KON solution was added at room temperature. Hydrolysis was performed over the course of 1 hour at 37° C., then the beakers were put in ice to stop the hydrolysis process. 4 ml of the 0.6 M solution were added to each beaker and the beakers were left in ice for another 15 minutes, then centrifuged for 15 minutes at 5000 revolutions per minute. The supernatant was used to determine the RNA by UV absorption at 260 nm and 290 nm compared to the control sample containing 0.4M of HCIO4). The amount of RNA in μg per 1 ml of the supernatant was calculated using the following formula: [formula] where C=is the RNA concentration (μg/ml)
DNA analysis was carried out on the sediment remaining after the alkaline hydrolysis used to determine RNA. 0.5 M of HCIO4 (5 ml per sample) was poured into the dried beaker containing the sediment. Hydrolysis was performed in a boiling water bath for 20 minutes. The amount of DNA in μg per 1 ml of the hydrolysate was calculated using the following formula: [formula] where C=is the DNA concentration (μg/ml). Catalase Activity
Catalase activity was determined using the permanganate method. The optimal amount of the substrate (3 ml of 1% H2O2) and 1 ml of the enzyme were added to 10 ml of phosphate buffer, pH 7.8. After 10 minutes the reaction was stopped by adding 1.5 ml of H2SO4 (50%). The remaining hydrogen peroxide was filtered with 0.1M of KMnO4 solution. Catalase activity was calculated on the basis that 1 ml of 0.1M of KMnO4 solution corresponds to […] of H2O2.
SOD activity was determined using the dianisidine method, which is based on the fact that under ultraviolet irradiation Riboflavin (Rb) is converted to an excited (ionised) state and therefore becomes able to attack reduced dianisidine (DH2). […]

The subject of data set [3] is liver after partial hepatectomy. The data set can be described thus: Morphological study of the liver after partial hepatectomy. Type of data set: in vivo, rats. The following applies: rat, in vivo. The procedure:
Morphological methods are highly informative in the assessment of repair processes. Histological tests of the liver after partial hepatectomy were performed using generally accepted methods. Microscopic sections were stained with hematoxylin and eosin using Van Gieson's methodology. Liver tests after partial hepatectomy were performed on 8 groups of animals, totalling 37 rats. All animals were examined one week after hepatectomy.

Another data set is described as follows: in vivo. The following applies: male, mouse, ip.

Protocol for in vivo: (§1) The acute toxicity of 1,3-dialkyl-4,5-bis (N-methylcarbamoyl)imidazolium salts was assessed following intraperitoneal injection into 200 white male mice weighing 18 to 20 g. Dead animals were counted daily after the administration of the test substance.
Protocol for white male mice: as §1

As usually defined, the LD50 is the dose expected to kill half of the subjects tested. High values mean a less toxic substance, low ones a more toxic substance. On to `CC[n+]1cn(C)c(C(=O)NC)c1C(=O)NC` [Compound 4, 1-methyl-3-ethyl-4,5-bis(N-methylcarbamoyl)-imidazolium chloride], for which the “Reaction index (%)” value in data set [1] (10 mg/kg intra-peritoneally one hour before Con A) is on record as 14.1 ± 2.0%. Also, in data set [1] (50 mg/kg intra-peritoneally one hour before Con A), the “Reaction index (%)” value was 12.4 ± 0.4 %. In data set [2] (0.2 mM/kg), the “Catalase E activity” value is reported as 18.0 ± 2.6 μgM/min/g tissue × 1000, the “DNA content (in mg/g of tissue)” value is 3.72 ± 0.09 mg/g of tissue, the Protein content worked out at 85.5 ± 10.6 Mg/g tissue and the “RNA content (mg/g of tissue)” value was 7.14 ± 0.2 mg/g of tissue. For the same compound, the SOD activity in data set [2] (0.2 mM/kg) is 90.0 ± 3.3 Units/g tissue. Further, in data set [2] (0.2 mM/kg intraperitoneally, 7 days, hepatectomy alone = 100), the Level of recovery stood at 128.3. For the same compound, in data set [3], the “histological findings in the liver” value was “showed no undesirable effects”. For the same compound, the toxicity result in the data set on white male mice was “very low toxicity”. For the same compound, in the data set “in vivo”, the LD50 at 14 days turned out to be 1220 mg/kg.
